Experimental data taken from patent US20250110130A1, “EX VIVO PROTEASE ACTIVATION AND DETECTION” (SunBird Bio, Inc., priority 2021, published 2025).
Non-standard residues stand in square brackets, D forms with d. Primed or numbered codes have the meaning given here. No end group written: not given here. *: point of attachment. CPQ2 = fluorescent quencher, paired with 5-carboxyfluorescein; 5FAM = O=C1OC2(c3ccc(O)cc3Oc3cc(O)ccc32)c2ccc(C(=O)*)cc21; FAM = 5-carboxyfluorescein (fluorescent label); PEG2′ = PEG spacer

Experiments:
[1] = system: protease activity sensed by Probe #102 (cathepsin L, CTSL) in K2 EDTA plasma; experiment: Protease inhibitor profiling of Probe #102 cleavage in NASH and healthy plasma; details: for effect of inhibitor on signal, in words: Probe #102, NASH and healthy plasma
Experimental: For this experiment, all plasma samples were prepared individually and diluted 1/10e in PBS with inhibitor added directly to the samples. Inhibitor was prepared at 15× concentration to final. Substrates were diluted in DI water at 18 uM, such that the final concentration on the plate would be 6 uM. All samples were prepared such that their last dilution on the plate would not affect the desired final concentration. 10 ul of each individual sample was pipetted into their corresponding wells, and the plate was then spun down in the centrifuge at 1500 RPM for 30 seconds to coat the bottom of each well with the sample. 5 ul of the 18 uM substrate solution was pipetted into each well being used on a 384 well plate, and then the plate was spun down in the centrifuge at 1500 rpm for 30 seconds. The plate was placed immediately in the plate reader at 37° C. for a 30-minute-long fluorescence kinetic read at 485/535 extended gain.
To assess the proteolytic cleavage pattern of Probe #102, samples were tested using a pool of broad inhibitors for serine, cysteine, threonine, MMP and aspartic protease family members (broad inhibitor) to assess general protease activity, AEBSF for serine proteases, E64 for cysteine proteases, CTSi for broad cathepsin inhibition of cathepsins L, S, K and B, or specific inhibitors for cathepsin K (L00625), for cathepsin L (SID) or cathepsin B (CA074).

MMPs in K2 EDTA plasma = experiment: Zinc reactivation of MMPs in human K2 EDTA plasma; type: biochemical; details: for protease activity recovered by Calcium compared to Zinc: Calcium up to 6 mM vs 1 mM Zinc, plasma
Source text: In this experiment, MMPs are reactivated in K2 EDTA plasma that has been collected with EDTA. EDTA causes chelation of the […] ion and interferes with the stability of the MMPs and has high MMP inhibition activity in vitro. The goal of zinc addition was to reactivate potential MMPs in solution that have been inhibited due to the addition of K2 EDTA.
To reactivate the MMPs in plasma, the EDTA was completely titrated and bound to the Zinc while the excess zinc in the solution was also used as an activating agent for the MMPs. Zinc chloride (Alfa Aesar) was prepared in ddH2O and fully dissolved. The zinc chloride ([…]) solution was then diluted in an assay buffer designed for MMPs. The plasma samples were prepared in the MMP buffer and the plasma samples were combined with the ZnCl solution in a 3:1 ratio. The mixture was incubated on ice after being combined. While the samples were incubating, the related substrates were prepared for analysis. Substrates used in this experiment were Probes #117, 263, 349, and 417. Samples were added to a substrate of interest once the sample incubation was complete. The mixture was spun, and results were read on a Biotek Synergy H1 at Ex/Em=485/535 using extended dynamic range.

MMP2 [2] = biological target: T1, MMP2 (Homo sapiens, UniProt P08253); experiment: Recombinant MMP2 spike-in to human K2 EDTA plasma with Zinc titration; type: biochemical; design: host or cells: spiked into human K2 EDTA plasma
T1 sequence (P08253 110-660): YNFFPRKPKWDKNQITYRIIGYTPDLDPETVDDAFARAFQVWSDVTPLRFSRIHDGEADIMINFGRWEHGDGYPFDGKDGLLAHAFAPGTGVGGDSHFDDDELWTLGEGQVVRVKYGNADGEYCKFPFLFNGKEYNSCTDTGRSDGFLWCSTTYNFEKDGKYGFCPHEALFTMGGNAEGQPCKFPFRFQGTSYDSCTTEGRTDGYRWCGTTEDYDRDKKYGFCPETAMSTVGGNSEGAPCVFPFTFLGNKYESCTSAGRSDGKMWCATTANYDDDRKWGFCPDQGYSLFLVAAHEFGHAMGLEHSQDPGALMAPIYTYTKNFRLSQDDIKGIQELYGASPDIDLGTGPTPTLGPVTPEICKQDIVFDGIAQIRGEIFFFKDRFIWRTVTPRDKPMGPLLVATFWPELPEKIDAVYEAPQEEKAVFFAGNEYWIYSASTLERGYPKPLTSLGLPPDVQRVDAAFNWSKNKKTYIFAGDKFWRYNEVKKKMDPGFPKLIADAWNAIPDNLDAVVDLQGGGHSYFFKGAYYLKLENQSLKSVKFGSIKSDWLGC

[3] = system: carboxylesterase 1, phospholipase A2 and lipoprotein lipase; experiment: Spiked recombinant enzymes in human plasma with resorufin oleate as substrate; type: biochemical
[4] = system: protease (caspase) activity in mouse plasma; experiment: Ex vivo probe assay in plasma of the Jo2 mouse model of fulminant hepatitis; type: biochemical; details: mouse plasma 3 hours after Jo2 injection
Experimental: Fulminant hepatitis is induced after injection intraperitoneal of monoclonal antibody anti-CD95 (Jo2, BD biosciences, 4 ug/animal), and mouse plasma samples were collected 3 hours after Jo2 injection.
The comparison with mass spectrometry data also aligns and confirms high concordance with the ex vivo approach, which is reassuring to confirm the existence of a biologically relevant signal.

MMP2 [5] = biological target: T1, MMP2; experiment: Recombinant protease screen of probes; type: biochemical; details: recombinant MMP2, 1 h fluorescence read
Experimental: (§1) To determine different probes' ability to cleave MMPs and/or DPP4, samples were pipetted into each well in a 384 well plate. […] The plate was centrifuged again, and the plate was then placed into the plate reader for a 1 h fluorescence read.

MMP20 = biological target: T2, MMP20 (Homo sapiens, UniProt O60882); experiment: Recombinant protease screen of probes; type: biochemical; details: recombinant MMP20, 1 h fluorescence read
T2 sequence (O60882 108-483): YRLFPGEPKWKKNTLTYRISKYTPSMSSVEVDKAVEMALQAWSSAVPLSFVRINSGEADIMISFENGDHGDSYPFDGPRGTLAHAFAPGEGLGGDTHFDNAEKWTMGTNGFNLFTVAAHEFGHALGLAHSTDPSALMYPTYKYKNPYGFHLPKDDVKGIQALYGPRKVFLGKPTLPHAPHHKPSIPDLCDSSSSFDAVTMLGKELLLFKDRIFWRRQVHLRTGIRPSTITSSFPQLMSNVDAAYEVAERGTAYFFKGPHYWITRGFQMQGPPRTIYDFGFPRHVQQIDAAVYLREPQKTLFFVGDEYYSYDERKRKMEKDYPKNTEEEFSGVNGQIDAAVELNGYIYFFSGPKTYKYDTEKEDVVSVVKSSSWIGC
Experimental: as §1

[6] = system: MMP protease signal in mouse plasma; experiment: Zinc reactivation of MMPs in mouse plasma, healthy vs NASH; type: biochemical; details: for Fold change ratio, Zinc Buffer: Zinc MMP buffer
Source text: To perform this experiment, samples were pipetted into each well of a 384 well plate. […] The plate was kept on ice throughout procedure. […] Then, the place was centrifuged again.
A summary table of the results can be found in Table 4.

MMP13 = MMP13 (Homo sapiens, UniProt P45452); experiment: Recombinant protease screen of probes; type: biochemical; details: recombinant MMP13, 1 h fluorescence read
Experimental: as §1

[7] = system: protease activity in COVID and healthy plasma; experiment: Ex vivo probe assay in COVID and healthy plasma (K2 EDTA and Lithium Heparin); type: biochemical; details: K2 EDTA samples
DPP4 = DPP4 (Homo sapiens, UniProt P27487); experiment: Recombinant protease screen of probes; type: biochemical; details: recombinant DPP4, 1 h fluorescence read
DPP4, sequence (P27487 whole entry, species assumed): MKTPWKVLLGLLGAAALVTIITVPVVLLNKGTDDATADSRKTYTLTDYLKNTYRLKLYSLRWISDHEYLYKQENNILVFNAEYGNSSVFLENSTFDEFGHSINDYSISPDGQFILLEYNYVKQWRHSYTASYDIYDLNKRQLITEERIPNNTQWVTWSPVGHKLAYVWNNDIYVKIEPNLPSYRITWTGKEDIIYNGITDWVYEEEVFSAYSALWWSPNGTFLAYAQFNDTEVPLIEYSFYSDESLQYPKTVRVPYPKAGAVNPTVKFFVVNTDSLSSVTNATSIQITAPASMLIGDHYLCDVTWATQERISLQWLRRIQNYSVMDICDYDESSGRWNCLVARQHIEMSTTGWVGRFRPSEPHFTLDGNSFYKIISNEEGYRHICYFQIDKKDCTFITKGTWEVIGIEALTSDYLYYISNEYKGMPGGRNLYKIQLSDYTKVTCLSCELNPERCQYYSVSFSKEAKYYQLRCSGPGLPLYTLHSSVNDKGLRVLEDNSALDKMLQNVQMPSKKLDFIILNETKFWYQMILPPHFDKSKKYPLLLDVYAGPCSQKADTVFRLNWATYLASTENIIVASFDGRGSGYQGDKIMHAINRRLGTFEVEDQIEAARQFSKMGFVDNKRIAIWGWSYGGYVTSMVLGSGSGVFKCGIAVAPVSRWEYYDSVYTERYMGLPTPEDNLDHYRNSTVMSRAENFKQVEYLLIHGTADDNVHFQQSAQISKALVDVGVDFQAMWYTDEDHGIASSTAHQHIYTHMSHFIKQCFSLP
Experimental: as §1

**Q.** Which “decrease of signal in NASH samples by inhibitor” value ([1]; Probe #102, NASH plasma) does the source give for `NCCc1ccc(S(=O)(=O)F)cc1` [AEBSF] here?
**A.** The value was 65%.

**Q.** What about the “decrease of signal in healthy samples by inhibitor” value ([1]; Probe #102, healthy plasma) of the same compound?
**A.** The value was 60%.

**Q.** Which “effect of inhibitor on signal, in words” value [1] does the source give for `CCCNC(=O)[C@H]1O[C@@H]1C(=O)N[C@H](C(=O)N1CCC[C@H]1C(=O)O)[C@@H](C)CC` [CA074] here?
**A.** Its value is “did not significantly decrease signal”.

**Q.** Which “protease activity recovered by Calcium compared to Zinc” value (MMPs in K2 EDTA plasma) does the source give for `[Ca]` [Calcium] here?
**A.** The value was “minimal protease activity is recovered”.

**Q.** What about the “protease activity recovered by Calcium compared to Zinc” value (MMPs in K2 EDTA plasma; listed as calcium) of the same compound?
**A.** The value was “does not show similar activation effects”.

**Q.** With `O=C([O-])CN(CCN(CC(=O)O)CC(=O)O)CC(=O)[O-].[K+].[K+]` [K2 EDTA] as the compound, how does the “activity of recombinant MMP2 spiked into human K2 EDTA plasma” value (MMP2 [2]) read?
**A.** Its value is “completely deactivated”.

**Q.** `CC(C)C[C@H](NC(=O)[C@H]1O[C@@H]1C(=O)O)C(=O)NCCCCN=C(N)N` [Probe E64, E64] was tested. Which “effect of inhibitor on signal, in words” value [1] did it give?
**A.** The value was “decreased NASH signal significantly”.

**Q.** Which “effect of inhibitor on signal, in words” value [1] does the source give for `CN1CCN(c2nc(-c3ccc(C(=O)NC4(C(=O)NCC#N)CCCCC4)cc3)cs2)CC1` [Probe L006235] here?
**A.** The value was “did not significantly decrease signal”.

**Q.** For `[Cl-].[Cl-].[Zn+2]` [Zinc, Zinc chloride], which “optimal Zinc concentration” value (MMPs in K2 EDTA plasma; across all vendors tested, Probe #349) is on record?
**A.** Its value is 1 mM.

**Q.** And the “activity of recombinant MMP2 spiked into human K2 EDTA plasma” value (MMP2 [2])?
**A.** Its value is “capable of reviving the MMP2 activity in plasma”.

**Q.** For `CCCC(=O)O` [butyrate], which “suitability as substrate for detection of enzymes” value [3] is on record?
**A.** Its value is “promising for detection of broad range of enzymes”.

**Q.** For “Probe #8: Caspase centric probe (5FAM-GVDVADGK(CPQ2)[PEG2′][dK][dK]GC; also: 5-FAM, CPQ2 quencher, PEG2, D-Lys-D-Lys-GC)”, which “contrast between healthy and Jo2 samples” value [4] is on record?
**A.** The value was “show contrast that is specific and sensitive to the Jo2 model”.

**Q.** With “Probe #12: Caspase centric probe (5FAM-GDEVDGK(CPQ2)[PEG2′][dK][dK]GC; also: 5-FAM, CPQ2 quencher, PEG2, D-Lys-D-Lys-GC)” as the compound, how does the “contrast between healthy and Jo2 samples” value [4] read?
**A.** The value was “show contrast that is specific and sensitive to the Jo2 model”.

**Q.** What does the source list for “Probe #117: probe whose peptide linker is SEQ ID No 117 ({FAM}-GAALHNDGK(CPQ2)[PEG2′][dK][dK]-NH2; also: FAM, CPQ2 quencher, PEG2, D-Lys-D-Lys, amide)”?
**A.** protease sensed by probe (MMP2 [5]): sensed; protease sensed by probe (MMP20): sensed; Fold change ratio, Zinc Buffer [6]: 2.11; Fold change ratio, Normal Buffer [6]: 1.47

**Q.** Which “protease sensed by probe” value (MMP13) does the source give for “Probe #263: probe whose peptide linker is SEQ ID No 263 ({FAM}-GQKAAWDGK(CPQ2)-NH2; also: FAM, CPQ2 quencher)” here?
**A.** Its value is “sensed”.

**Q.** What about the “Fold change ratio, Zinc Buffer” value [6] of the same compound?
**A.** The value was 2.09.

**Q.** And the “Fold change ratio, Normal Buffer” value [6]?
**A.** The value was 1.7.

**Q.** “Probe #409: the SARS CoV2 coronavirus substrate (SARS-COV2 3C protease) (GTSAVLQSGFRKGK; also: 5-FAM, CPQ2 quencher, PEG2-kk-GC)” was tested. Which “contrast between COVID and healthy samples” value [7] did it give?
**A.** Its value is “modest contrast”.

**Q.** How did the “protease sensed by probe” value (DPP4) turn out when “Probe #411: probe of Table 1; sensed DPP4 (5FAM-GAAFAGK(CPQ2)[PEG2′][dK][dK]GC; also: 5-FAM, CPQ2 quencher, PEG2, D-Lys-D-Lys-GC)” was run?
**A.** Its value is “sensed”.

**Q.** What about the “Fold change ratio, Zinc Buffer” value [6] of the same compound?
**A.** The value was 2.52.

**Q.** And the “Fold change ratio, Normal Buffer” value [6]?
**A.** The value was 1.88.

**Q.** How did the “suitability as substrate for detection of enzymes” value [3] turn out when Resorufin oleate was run?
**A.** Its value is “promising for detection of broad range of enzymes”.
